What was measured:
[1] = system: mouse model of experimental autoimmune uveitis; experiment: Experimental autoimmune uveitis (EAU), topical treatment; format: in vivo; conditions: daily topical
Experimental: Following induction of experimental autoimmune uveitis (EAU), mice were treated daily with topical latanoprost free acid (LFA; 100 μM) or STC-1 (0.5 μg/mL) in one eye and vehicle in the other eye. At day 18, OCT was performed and retinal thickness was measured in a masked manner. At day 21, eyes were enucleated and processed for hematoxylin and eosin (H&E) staining.
Experimental autoimmune uveitis (EAU) was induced in the C57B/6 mouse with a protocol described elsewhere (see, e.g., Avichezer et al., Invest. Ophthalmol. Vis. Sci., 41(1):127-31 (2004)). Briefly, human interphotoreceptor retinoid binding protein (IRBP) in complete Freund's adjuvant was injected subcutaneously and pertussis toxin was injected intraperitoneally as an additional immune stimulus.

C57BL/6J mice = experiment: Aqueous outflow parameters by constant flow infusion; format: in vivo, mouse; conditions: 6 weeks post intracameral injection, treatment day 5 for topical
Excerpt: To determine the effects of ssAAV2-smCBA-STC-1-FLAG on parameters of aqueous outflow, 3-month old C57BL/6J mice were separately treated with the following: 1) intracameral ssAAV2-smCB A-STC-1-FLAG (n=5), 2) intracameral ssAAV2-smCBA-GFP (n=5), 3) topical recombinant human STC-1 (n=4; Biovender Research and Diagnostic Products, Czech Republic) (Roddy et al., Invest Ophthalmol Vis Sci. 58:2715-24(2017); Roddy et al., PLoS ONE. 15(2020)), 4) topical latanoprost free acid (LFA; n=5; Cayman Chemical, Ann Arbor, MI), or 5) untreated mice (n=4). Mice that received topical treatments were treated with once daily topical doses of STC-1 (5 μl of 0.5 μg/μl) or LFA (10^-4 M) for 5 days prior to aqueous outflow experiments. Mice that received intracameral injections were treated 6 weeks prior to aqueous outflow measurements. Aqueous outflow was assessed using the protocols previously established (Millar et al., Invest Ophthalmol Vis Sci. 52:685-94(2011); Roy Chowdhury et al., Invest Ophthalmol Vis Sci. 58:5731-42(2017)). Briefly, a 33-g needle was used to cannulate the anterior chamber of anesthetized mice. The needle was connected to a flow-through pressure transducer (World Precision Instruments, Sarasota, FL) that was also connected to an SP101i microdialysis infusion pump (World Precision Instruments) and an open-ended, variable-height, raised reservoir manometer. Episcleral venous pressure was obtained by visualizing the reflux of blood into Schlemm's canal by direct ophthalmoscopy as the reservoir was lowered. Outflow facility was determined by slowly increasing the flow rate with the infusion pump and recording the pressure. Uveoscleral outflow was calculated when the inflow is presumed to be zero immediately after animal sacrifice. Aqueous humor formation was then estimated by using the modified Goldmann equation, i.e. aqueous formation rate=[outflow facility X (IOP−episcleral venous pressure)]+uveoscleral outflow as previously described (Millar et al., Invest Ophthalmol Vis Sci. 52:685-94(2011)). To validate the calculated IOP values based on the Goldman equation, IOP was also assessed with a handheld rebound tonometer. All data were recorded and analyzed using LabScribe software (World Precision Instruments).

wild-type C57BL/6J mice = experiment: Steroid-induced (dexamethasone) ocular hypertension model, topical treatment; format: in vivo, mouse
Excerpt: All studies were approved by the Mayo Clinic (Rochester, MN) IACUC and adhered to ARVO guidelines. […] In the final phase of the experiment (experimental weeks 7-9, treatment weeks 4-6), dexamethasone-injected animals in Group 2 continued to receive topical STC-1 while treatment was halted in the vehicle-injected fellow eye for a medication wash-out period (FIG. 22). For statistical purposes, the final week of each condition was selected (i.e. weeks 3, 6, and 9) for analysis. To determine if a difference in IOP was present among groups at week 6 and 9, a Kruskal-Wallis test was performed. An unpaired t-test was used to directly compare the two groups. Values for all statistical tests were considered significant at P<0.05.
For both models histologic analysis was performed.

[2] = one eye, IOP 33 mmHg at 12 months after plaque
Excerpt: Records were reviewed for patient demographics, clinical tumor features, treatment parameters, and outcomes, with attention to IOP and optic disc features.

Q: Which results are given for `O=C(O)CCC/C=C\C[C@@H]1[C@@H](CC[C@@H](O)CCc2ccccc2)[C@H](O)C[C@@H]1O` [LFA, latanoprost free acid]?
A: Retinal thickness by OCT vs vehicle control eye ([1]; day 18): no significant difference in retinal thickness; Vitreous inflammatory cells (H&E) ([1]; day 21): trend toward greater vitreous cell; Episcleral venous pressure (C57BL/6J mice): 10.0 ± 2.4 mmHg; Outflow facility (C57BL/6J mice): 0.046 ± 0.02 μL/min/mmHg; Uveoscleral outflow (C57BL/6J mice): 0.046 ± 0.02 µL/min; Calculated IOP (C57BL/6J mice; Goldmann equation): 14.0 ± 1.9 mmHg; Measured IOP (C57BL/6J mice; rebound tonometer): 13.2 ± 0.9 mmHg

Q: With `CC(=O)OCC(=O)[C@@]1(O)[C@H](C)C[C@H]2[C@@H]3CCC4=CC(=O)C=C[C@]4(C)[C@@]3(F)[C@@H](O)C[C@@]21C` [dexamethasone, dexamethasone acetate] as the compound, how does the IOP (wild-type C57BL/6J mice; PBS-treated dexamethasone-injected eyes, week 6, n=8) read?
A: 19.5±1.7 mmHg

Q: What about the IOP (wild-type C57BL/6J mice; PBS-treated dexamethasone-injected eyes, week 9, n=8) of the same compound?
A: 19.7±1.3 mmHg

Q: And the “Increase in IOP vs vehicle-injected eyes” value (wild-type C57BL/6J mice; after 3 weekly conjunctival fornix injections, n=18)?
A: 18%

Q: And the IOP (wild-type C57BL/6J mice; dexamethasone-injected eyes, week 3, n=18)?
A: 19.7±1.8 mmHg

Q: What about the “IOP change vs PBS-treated vehicle-injected eyes” value (wild-type C57BL/6J mice; week 6, n=8) of the same compound?
A: 25%

Q: Which “Response of IOP spike to topical therapy” value [2] does the source give for “dorzolamide hydrochloride-timolol maleate” here?
A: responded
